The source of these data is patent US20240327320A1, “NOVEL ROUTES OF CHEMICAL SYNTHESIS OF 20S(OH)D3, 20S,25(OH)2D3, 20S,23S(OH)2D3, AND 20S,23R(OH)2D3 AND THEIR MODIFICATION OF THE IMMUNE ACTIVITY OF PBMCS” (United State Government as represen ted by the Department …, priority 2023, published 2024).

Read-outs that look alike come from different tables or passages of the source.

The conditions of data set [1]: cited from earlier work.
The test system of data set [2] is CD4 and CD8 T cells from human peripheral blood. Nature of the data set: T cell activation in PBMC, flow cytometry with TriMAP/FlowSOM. The class given is cell-based. To be noted: 10^-7 M, 24 h, anti-CD3 and anti-CD28, compared to ethanol treated cells. The protocol: Human peripheral blood mononuclear cells (PBMC) from two healthy individuals were obtained from a pre-existing respository. Their use was approved by the University of Alabama at Birmingham Institutional Review Board (Human Subject Assurance Number FWA00005960) as an exempt protocol #4 (Dr C. Raman, P.I.). […] Informed consent is waived in accord with 45CFR46.116 (d). In 48 well plates, 0.5×10^6 PBMC/well were cultured in RPMI1640 containing, 5% charcoal adsorbed FBS and antibiotics and T cells were activated using […] anti-CD3 (clone 145-2C11) and 1 μg/ml anti-CD28 (clone 37.51) for 24 h (Janjetovic Z, et. al., (2021) Endocrinology 162(1), Chaiprasongsuk A, et. al., (2020) Free Radic Biol Med 155 87-98, Slominski A T, et. al., (2011) Am J Physiol Cell Physiol 300(3) C526-41, McGuire D J, et. al., (2014) Eur J Immunol 44(4) 1137-42, Sestero C M, et. al., (2012) J Immunol 189(6) 2918-30). The culture was treated with 10^-7 M 20S(OH)D3, 20S,25(OH)2D3, 20S,23S(OH)2D3, 20S,23R(OH)2D3 or 1α,25(OH)2D3 (Sigma-Aldrich, St. Louis, MO, USA) dissolved in ethanol and diluted in culture medium at the same time of addition of anti-CD3 and anti-CD28. The vehicle control comprised of 0.1% ethanol. At the end of assay the cells were stained with antibodies to CD4 (clone RPA-T4, BV-421), CD19 (clone HB19, BV-510), CD14 (clone HCD14, Alexa 700), CD137 (clone 4B4-1, BV605), CD8a (clone RPA-T8, FITC), ICOS (clone C398.4A, PE/Dazzle), PD1 (clone NAT105, PE), CD80 (clone 2D10, PerCP/Cy5.5), OX40 (clone ACT35, PE/Cy7), CD69 (clone FN50, APC), HLA-DR (clone L243, APC/Fire 750). All antibodies were from Biolegend except anti-CD8 was from Thermo Fisher. The stained cells were analyzed using a CytoFLEX (Beckman Coulter) flow cytometer.
For unbiased analysis of the multidimensional data, acomputational algorithm-based approaches was utilized (Quintelier K, et. al., (2021) Nature Protocols 16(8) 3775-3801). The flow cytometry standard (FCS) data files from each individual and treatment (two individuals, six treatments including ethanol, a total of 12 data files) were processed through the following workflow—compensation, gating on live cells, gating for single cells and subtraction of CD19+(B cells) and CD14+(monocytes). B cells and monocytes were removed from the analysis because only T cells (CD4+ and CD8+) are activated by anti-CD3 and anti-CD28. After these initial gating steps, a key word was added to each of the 12 FCS files, down sampled to 50,000 events/sample and concatenated. Down sampling ascertains that each sample is equally weighted, and concatenation ascertains that statistical analysis is applied equally. The concatenated files were first subjected to TriMAP analysis, a computational algorithm that clusters populations based on triplet relatedness followed by FlowSOM algorithm-based clustering (Quintelier K, et. al., (2021) Nature Protocols 16(8) 3775-3801). To perform these analyses, plugins within FlowJo (BD, CA, USA) were used.
T cells in peripheral blood from two healthy individuals were activated with anti-CD3 and anti-CD28 in the absence (ethanol) or presence of 10^−7 M of each of the vitamin D3 secosteroids for 24 h. The cells were stained for lineage markers (CD4, CD8, CD19, CD14) and a panel of activation induced markers (CD69, ICOS, OX40, CD137, PD1, HLADR) and expression data were collected using a flow cytometer. The gating strategy was live, single cell followed by CD4 and CD8 T cell populations. […]

Consider 25(OH)D3 [reference compound], for which the “calcemic activity / toxicity” value in data set [1] (literature, at the same doses) is “highly toxic”.

Take `C=C1/C(=C\C=C2/CCC[C@]3(C)[C@@H]([C@H](C)CCCC(C)(C)O)CC[C@@H]23)C[C@@H](O)C[C@@H]1O` [1α,25(OH)2D3, reference compound]: the “calcemic activity / toxicity” value in data set [1] (in vivo) is “highly toxic”. For the same molecule, in data set [2], the “CD4 T cells of population 4 (down modulated CD4, increased CD69 and ICOS)” value is recorded as “fewer cells”.

Consider `C=C1CC[C@H](O)C/C1=C/C=C1\CCC[C@@]2(C)[C@H]1CC[C@@H]2[C@@](C)(O)CC(O)CC(C)C` (stereo partly shown) [20S,23(OH)2D3, 20,23-dihydroxyvitamin D3], for which, in data set [2], the “CD4 T cells of population 4 (down modulated CD4, increased CD69 and ICOS)” value is recorded as “no effect on this population”.
